Experimental data as given in ChEMBL document CHEMBL1148999, “Antimalarial agents, 2. Artesunate, an inhibitor of cytochrome oxidase activity in Plasmodium berghei” (J Nat Prod, 1986).
Calls of active or inactive are those of the source. No cut-off for these calls is given here.

Experiments:
Plasmodium berghei [1] = test: Inhibition of Plasmodium berghei trophozoite cytochrome oxidase after 30 min by osmium black staining
Plasmodium berghei [2] = test: Inhibition of Plasmodium berghei trophozoite cytochrome oxidase at 1 mM after 30 min by osmium black staining
Plasmodium berghei [3] = test: Inhibition of Plasmodium berghei trophozoite cytochrome oxidase at 100 nM after 30 min by osmium black staining
Plasmodium berghei [4] = test: Inhibition of cytochrome oxidase in intraerythrocytic trophozoite of Plasmodium berghei infected CF1 mice (Mus musculus) at 100 mg/kg intravenous dose; format: functional, organism-based; parameters: dose 100 mg/kg

Activity (Plasmodium berghei [1]): Dose-dependent effect
Activity (Plasmodium berghei [2]): Active
Activity (Plasmodium berghei [3]): inactive
Structure (SMILES): C[C@H]1[C@H](OC(=O)CCC(=O)O)O[C@@H]2O[C@@]3(C)CC[C@H]4[C@H](C)CC[C@@H]1[C@@]24OO3
Activity (Plasmodium berghei [4]): Active
